According to BindingDB's records for doi:10.7270/Q2FF3QRT (University of Pittsburgh, 2006):

target: T1, M-phase inducer phosphatase 2 (Homo sapiens, UniProt P30305); assay: inhibition of Cdc25B catalytic domain activity – biochemical, dose response, selectivity assay, confirmation (AID 443)
T1 sequence (P30305 whole entry): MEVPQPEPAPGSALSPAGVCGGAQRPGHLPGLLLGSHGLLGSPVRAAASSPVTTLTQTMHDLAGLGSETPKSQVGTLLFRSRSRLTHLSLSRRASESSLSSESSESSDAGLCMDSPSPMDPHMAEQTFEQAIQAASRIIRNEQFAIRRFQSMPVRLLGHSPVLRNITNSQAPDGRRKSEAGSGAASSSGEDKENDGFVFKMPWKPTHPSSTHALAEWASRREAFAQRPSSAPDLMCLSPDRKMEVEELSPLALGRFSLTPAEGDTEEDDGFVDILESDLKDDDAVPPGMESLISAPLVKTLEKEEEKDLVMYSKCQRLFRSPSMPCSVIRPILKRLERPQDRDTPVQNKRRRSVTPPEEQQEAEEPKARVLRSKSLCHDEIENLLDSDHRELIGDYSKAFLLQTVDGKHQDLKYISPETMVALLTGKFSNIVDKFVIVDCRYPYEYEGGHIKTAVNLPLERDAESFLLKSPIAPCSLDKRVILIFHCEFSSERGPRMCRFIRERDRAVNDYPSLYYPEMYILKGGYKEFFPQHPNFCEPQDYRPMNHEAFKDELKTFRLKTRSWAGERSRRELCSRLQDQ

| SMILES | IC50 [µM] |
| --- | --- |
| Cc1ccc2c(c1C)NC(C(=O)O)C1CC=CC21 (stereo not given) | 10.6 |
| CCn1nc(-c2ccccc2)nc2c(=O)n(C)c(=O)nc1-2 [1-Ethyl-6-methyl-3-phenyl-1H-pyrimido[5,4-e][1,2,4]triazine-5,7-dione] | 0.223 |
| CC(C)Cn1c(N)c(C(=O)COC(=O)c2cc(-c3ccco3)nc3ccccc23)c(=O)n(C)c1=O [2-(2-furanyl)-4-quinolinecarboxylic acid [2-[4-amino-1-methyl-3-(2-methylpropyl)-2,6-dioxo-5-pyrimidinyl]-2-oxoethyl] ester] | 13.1 |
| CCCCC[C@H](O)C=C[C@H]1C=CC(=O)[C@@H]1C/C=C\CCCC(=O)O [(Z)-7-[(1R,5S)-2-oxidanylidene-5-[(E,3S)-3-oxidanyloct-1-enyl]cyclopent-3-en-1-yl]hept-5-enoic acid] | 43.1 |
| COc1ccc(Cn2c(C)nc3c(c2=O)c2nc4ccccc4nc2n3Cc2ccco2)cc1 [MLS000079944] | 31.5 |
